Data set [1] concerns phospho-cdc2 (Tyr15) in HT-29 cells. The experiment in a line: Effect on phosphorylation of cdc2 at Tyr15 in HT-29 cells (PathScan ELISA). To be noted: Homo sapiens, HT-29, 8 h; HT29 cells, eight hours incubation; read-out: HT29 pCDC2 activity. The format is cell-based. As to the method: Method 2: Determining the effect of compounds on the phosphorylation of cdc2 at Tyr15
The colorectal cancer cell lines HT-29 and HCT-116 were purchased from the ATCC and routinely maintained in McCoy's Medium (Invitrogen) supplemented with 10% Foetal Calf Serum.
The cells were trypsinised from their growing vessel and counted, 100 μL of cell suspension containing 6000 cells was pipetted into black 96 well Co-star plates and incubated overnight to allow adherence to the surface at a temperature of 37° C. and an atmosphere of 5% CO2. Test compounds were formulated in DMSO and diluted in foetal calf serum supplemented medium. Incubating medium was removed by aspiration and diluted drug supplemented medium added to each well.
The plate was returned to the incubator for an additional eight hours at 37° C. and an atmosphere of 5% CO2. Post incubation, the drug supplemented medium was aspirated from each well and the cells were washed once in ice-cold phosphate buffered saline (PBS). 100 μL of cell lysis buffer (Cell Signalling Technologies #9803) containing 20 mM Tris, 150 mM NaCl, 1 mM EDTA, 1 mM EGTA, 1% Triton-X100, 2.5 mM sodium pyrophosphate, 1 mM glycerophosphate, 1 mM Na3VO4 and 1 μg/mL leupeptin was added to each well of the 96 well plate and incubated at 4° C. for 30 min. The samples on the plate were snap frozen at −80° C. until required.
Immediately before the continuation of the assay, the sample plate was thawed and centrifuged at 4° C. for 10 min and the supernatant transferred to secondary tubes or 96 well plate.
Cell supernatant was mixed in a ratio of 1:1 with sample dilutent buffer and vortexed for one minute. 100 μL of diluted sample was pipetted into pre-coated plates containing a rabbit polyclonal antibody for phospho-cdc2 (Tyr15) (Cell Signalling Technologies PathScan kit #7176). The plate was sealed and incubated overnight at 4° C.
The plate seal was removed and the well contents aspirated, followed by 3×5 min washes with 200 μL of diluted wash buffer. Between each wash the plate was tapped firmly onto blotting paper to ensure the removal of all kit solution. 100 μL of kit detection antibody was added to each well and the plate re-sealed and incubated at 37° C. for 1 h. Post incubation the plate was washed and processed in a similar manner to that previously described.
100 μL of horseradish peroxidise-linked secondary antibody was added to each test well, the plate sealed and incubated for thirty minutes at 37° C. Post incubation, the plate was washed as previously stated, followed by the addition of 100 μL of 3,3′,5,5′ tetramethylbenzidine (TMB reagent). The plate was sealed and incubated at RT for 30 min.
100 μL of stop solution was added to each well and the underside of the plate wiped with a lint-free tissue, prior to spectrophotometric determination. Absorbance from each well was read at 450 nm within 30 min of the addition of the stop solution.
The percentage of phospho-cdc2 was calculated compared to DMSO control and plotted versus the concentration of inhibitor using GraphPad Prism. Data was fitted using non-linear regression analysis and IC50 values generated.
(In general: In an ELISA, binding on a coated surface is turned into a signal by an enzyme label.)

Data set [2] can be described thus: CLint estimates using human liver microsomes. In kind it is in vitro ADME. To be noted: pH 7.4, read-out: HLM activity (HLM CLint). As to the method: Method for the Determination of CLint Estimates Using Human Liver Microsomes
Test compounds (final concentration=1 μM; final DMSO concentration=0.1%) were incubated in 0.1M phosphate buffer pH 7.4 with human liver microsomes (0.5 mg of protein/mL) at 37° C. Reactions were started by addition of NADPH in 0.1M phosphate buffer pH 7.4 (final concentration 1 mM). 40 μL aliquots were removed at 2, 5, 10, 15, 20, 30, 40 and 50 min. Reactions were quenched in 80 μL of ice-cold methanol. Samples were subsequently frozen overnight then centrifuged at 3500 rpm for 20 min at 4° C. The supernatants were removed and transferred into analytical plates and analysed by LC/MS/MS.
All samples were analysed on a Waters Acquity I-Class coupled to a Waters Xevo TQD mass spectrometer. A Waters BEH C18 2.1×50 mm 1.7 μm column was used and mobile phases were water and methanol containing 0.1% formic acid as modifier. Analysis was by multiple reaction monitoring and conditions were optimised for each test compound.
From a plot of ln peak area against time, the gradient of the line is determined. Subsequently, half-life and intrinsic clearance are calculated using the following equations.

In data set [3] the target is Wee-1 kinase (Homo sapiens (Human), UniProt P30291). The data set is described as follows: Measurement of Wee-1 kinase activity (ADP-Glo). The format is biochemical. The settings on record: read-out: Wee-1 IC50 activity. As to the method: Method 1: Measurement of Wee-1 kinase activity
Sequence of Wee-1 kinase (P30291 whole entry): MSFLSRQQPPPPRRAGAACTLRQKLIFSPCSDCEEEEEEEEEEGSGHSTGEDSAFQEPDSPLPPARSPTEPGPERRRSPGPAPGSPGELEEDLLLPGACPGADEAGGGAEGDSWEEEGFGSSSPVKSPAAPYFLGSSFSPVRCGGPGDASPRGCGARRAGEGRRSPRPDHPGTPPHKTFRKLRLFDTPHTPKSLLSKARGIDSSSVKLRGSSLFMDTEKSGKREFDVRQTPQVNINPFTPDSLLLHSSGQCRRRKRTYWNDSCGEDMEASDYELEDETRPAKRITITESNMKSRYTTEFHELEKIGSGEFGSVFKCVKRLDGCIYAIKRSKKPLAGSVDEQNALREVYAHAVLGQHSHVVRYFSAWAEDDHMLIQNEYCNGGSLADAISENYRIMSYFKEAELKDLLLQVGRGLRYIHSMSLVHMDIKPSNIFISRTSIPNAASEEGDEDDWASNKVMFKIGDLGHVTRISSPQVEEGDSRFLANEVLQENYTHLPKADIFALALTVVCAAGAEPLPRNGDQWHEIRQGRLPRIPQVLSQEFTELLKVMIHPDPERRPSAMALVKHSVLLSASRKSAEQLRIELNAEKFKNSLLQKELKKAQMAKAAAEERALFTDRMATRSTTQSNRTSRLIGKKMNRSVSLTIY
In the measurement of Wee-1 activity, a commercial peptide Poly(Lys Tyr(4:1)) hydrobromide was purchased from Sigma Aldrich and used as the substrate. Activated Wee-1 kinase was purchased from Invitrogen (PV3817) and an ADP-Glo luminescent kit was purchased from Promega.
All reactions took place in […] volumes in reaction buffer containing 40 mM Tris-HCl and 20 mM magnesium chloride, supplemented with 0.1 mg/mL bovine serum albumin and 2 mM DTT. Compounds were serially diluted in buffer and 5 μL of each concentration pipetted into a white 384 well plate (Sigma Aldrich M6186). A 5 μL aliquot of the Wee-1 enzyme was added to each well and the plate centrifuged for 1 min to ensure mixing of the enzyme and inhibitor.
The plate was incubated at room temperature for 30 minutes before the addition of 2.0 μg/mL of substrate and 30 μM ATP in a 5 μL aliquot. The plate was centrifuged for one minute and incubated for 1 h at RT.
15 μL of ADP-Glo stop reagent was added to each well to quench the reaction and deplete unconverted ATP. The plate was incubated for a further 40 min in the dark at RT.
30 μL of ADP-Glo kinase detection reagent was added to each well, converting ADP to ATP, catalysing the generation of luciferin by luciferase. The plate was shaken for 1 min, and incubated in the dark for an additional hour.
Luminescence from each well was detected using the Biotek Synergy4 HD plate reader and the percentage inhibition of kinase activity calculated for each inhibitor tested. Positive (kinase only) and negative (no kinase) controls were added to each plate to ensure specific interaction of kinase and inhibitor. The IC50 concentration for each inhibitor was calculated by plotting the percentage kinase inhibition against concentration of inhibitor and the curve generated by non-linear regression fitting.
A general note: ADP-Glo turns the ADP formed in a reaction into a luminescent signal.

As to `CN1CCN(c2ccc(Nc3ncc4c(=O)n(-c5c(Cl)cccc5Cl)ccc4n3)cn2)CC1` [Example 31, 6-(2,6-Dichlorophenyl)-2-((6-(4-methylpiperazin-1-yl)pyridin-3-yl)amino)pyrido[4,3-d]pyrimidin-5(6H)-one], the IC50 in data set [1] was 100 to 1000 nM. In addition, the microsomal CLint at 1 μM in data set [2] is > 20 µL/min/mg.

On to `CN1CCN(c2cccc(Nc3ncc4c(=O)n(-c5c(Cl)cccc5Cl)ccc4n3)c2)CC1` [Example 26, 6-(2,6-Dichlorophenyl)-2-((3-(4-methylpiperazin-1-yl)phenyl)amino)pyrido[4,3-d]pyrimidin-5(6H)-one], for which the IC50 in data set [1] was ≥ 1000 nM. Moreover, in data set [2], the microsomal CLint at 1 μM was > 20 µL/min/mg.

As to `O=c1c2cnc(Nc3ccc(N4CCNCC4)cc3)nc2c(Br)cn1-c1c(Cl)cccc1Cl` [Example 9, 8-Bromo-6-(2,6-dichlorophenyl)-2-((4-(piperazin-1-yl)phenyl)amino)pyrido[4,3-d]pyrimidin-5(6H)-one], the IC50 in data set [3] is < 10 nM; in data set [1], 100 to 1000 nM. In addition, in data set [2], the microsomal CLint at 1 μM is ≤ 20 µL/min/mg.

Turning to `CCN(CC)CCOc1ccc(Nc2ncc3c(=O)n(-c4c(Cl)cccc4Cl)ccc3n2)cc1` [Example 4, 6-(2,6-Dichlorophenyl)-2-((4-(2-(diethylamino)ethoxy)phenyl)amino)pyrido[4,3-d]pyrimidin-5(6H)-one], the IC50 in data set [1] is 100 to 1000 nM. Further, the microsomal CLint at 1 μM in data set [2] is > 20 µL/min/mg.

In the case of `Cc1cc(Nc2ncc3c(=O)n(-c4c(Cl)cccc4Cl)cc(C#CCO)c3n2)ccc1N1CCNCC1` [Example 14, 6-(2,6-Dichlorophenyl)-8-(3-hydroxyprop-1-yn-1-yl)-2-((3-methyl-4-(piperazin-1-yl)phenyl)amino)pyrido[4,3-d]pyrimidin-5(6H)-one], the IC50 in data set [3] was < 10 nM; in data set [1] it was ≤ 100 nM. Also, the microsomal CLint at 1 μM in data set [2] is ≤ 20 µL/min/mg.

Consider `Cc1cc(Nc2ncc3c(=O)n(-c4ccccc4Cl)ccc3n2)ccc1N1CCNCC1` [Example 24, 6-(2-Chlorophenyl)-2-((3-methyl-4-(piperazin-1-yl)phenyl)amino)pyrido[4,3-d]pyrimidin-5(6H)-one], for which the IC50 in data set [3] was < 10 nM; in data set [1], 100 to 1000 nM. For the same molecule, the microsomal CLint at 1 μM in data set [2] was ≤ 20 µL/min/mg.

For `O=c1c2cnc(Nc3ccc(N4CCNCC4)c(F)c3)nc2ccn1-c1c(Cl)cccc1Cl` [Example 29, 6-(2,6-Dichlorophenyl)-2-((3-fluoro-4-(piperazin-1-yl)phenyl)amino)pyrido[4,3-d]pyrimidin-5(6H)-one], the IC50 in data set [3] is < 10 nM; in data set [1], ≤ 100 nM. For the same molecule, the microsomal CLint at 1 μM in data set [2] is ≤ 20 µL/min/mg.

In the case of `O=c1c2cnc(Nc3ccc(N4CCNCC4)cc3)nc2ccn1-c1cccnc1Cl` [Example 3, 6-(2-Chloropyridin-3-yl)-2-((4-(piperazin-1-yl)phenyl)amino)pyrido[4,3-d]pyrimidin-5(6H)-one], the IC50 in data set [3] is > 200 nM. Besides, the microsomal CLint at 1 μM in data set [2] was ≤ 20 µL/min/mg.

Consider `NCC#Cc1cn(-c2c(Cl)cccc2Cl)c(=O)c2cnc(Nc3ccc(N4CCOCC4)cc3)nc12` [Example 22, 8-(3-Aminoprop-1-yn-1-yl)-6-(2,6-dichlorophenyl)-2-((4-morpholinophenyl)amino)pyrido[4,3-d]pyrimidin-5(6H)-one], for which the IC50 was < 10 nM in data set [3] and ≤ 100 nM in data set [1]. Moreover, the microsomal CLint at 1 μM in data set [2] is > 20 µL/min/mg.

`O=c1c2cnc(Nc3ccc(N4CCNCC4)c(Cl)c3)nc2ccn1-c1c(Cl)cccc1Cl` [Example 27, 2-((3-Chloro-4-(piperazin-1-yl)phenyl)amino)-6-(2,6-dichlorophenyl)pyrido[4,3-d]pyrimidin-5(6H)-one]: the IC50 in data set [3] is < 10 nM; in data set [1], 100 to 1000 nM. Also, the microsomal CLint at 1 μM in data set [2] was ≤ 20 µL/min/mg.

For the molecule `O=c1c2cnc(Nc3ccc(N4CCS(=O)(=O)CC4)cc3)nc2ccn1-c1c(Cl)cccc1Cl` [Example 6, 6-(2,6-Dichlorophenyl)-2-((4-(1,1-dioxidothiomorpholino)phenyl)amino)pyrido[4,3-d]pyrimidin-5(6H)-one], in data set [1], the IC50 was in the range of 100 to 1000 nM. The microsomal CLint at 1 μM in data set [2] is > 20 µL/min/mg.

On to `CC(=O)Nc1cn(-c2c(Cl)cccc2Cl)c(=O)c2cnc(Nc3ccc(N4CCNCC4)cc3)nc12` [Example 28, N-(6-(2,6-Dichlorophenyl)-5-oxo-2-((4-(piperazin-1-yl)phenyl)amino)-5,6-dihydropyrido[4,3-d]pyrimidin-8-yl)acetamide], for which the IC50 in data set [3] was > 200 nM.

`O=c1c2cnc(Nc3cc(F)c(N4CCNCC4)c(F)c3)nc2ccn1-c1c(Cl)cccc1Cl` [Example 30, 6-(2,6-Dichlorophenyl)-2-((3,5-difluoro-4-(piperazin-1-yl)phenyl)amino)pyrido[4,3-d]pyrimidin-5(6H)-one]: the IC50 in data set [3] was 10 to 200 nM; in data set [1] it was ≥ 1000 nM. Further, the microsomal CLint at 1 μM in data set [2] is ≤ 20 µL/min/mg.

Consider `CN1CCN(C(=O)c2ccc(Nc3ncc4c(=O)n(-c5c(Cl)cccc5Cl)ccc4n3)cc2)CC1` [Example 32, 6-(2,6-Dichlorophenyl)-2-((4-(4-methylpiperazine-1-carbonyl)phenyl)amino)pyrido[4,3-d]pyrimidin-5(6H)-one], for which the figures for the IC50 in data set [3] and in data set [1] were 10 to 200 nM and 100 to 1000 nM, respectively.

Regarding `CN1CCN(c2ccc(Nc3ncc4c(=O)n(-c5c(Cl)cccc5Cl)ccc4n3)cc2)CC1` [Example 15, 6-(2,6-Dichlorophenyl)-2-((4-(4-methylpiperazin-1-yl)phenyl)amino)pyrido[4,3-d]pyrimidin-5(6H)-one], the IC50 in data set [1] is 100 to 1000 nM. The microsomal CLint at 1 μM in data set [2] was > 20 µL/min/mg.

With `O=c1c2cnc(Nc3ccc(N4CCNCC4)cc3)nc2c(-c2cccnc2)cn1-c1c(Cl)cccc1Cl` [Example 23, 6-(2,6-Dichlorophenyl)-2-((4-(piperazin-1-yl)phenyl)amino)-8-(pyridin-3-yl)pyrido[4,3-d]pyrimidin-5(6H)-one], the figures for the IC50 in data set [3] and in data set [1] were < 10 nM and ≤ 100 nM, respectively. The microsomal CLint at 1 μM in data set [2] is > 20 µL/min/mg.

`NCc1cccc(Nc2ncc3c(=O)n(-c4c(Cl)cccc4Cl)ccc3n2)c1` [Example 25, 2-((3-(Aminomethyl)phenyl)amino)-6-(2,6-dichlorophenyl)pyrido[4,3-d]pyrimidin-5(6H)-one]: the IC50 in data set [1] was ≥ 1000 nM. Besides, the microsomal CLint at 1 μM in data set [2] is > 20 µL/min/mg.
